Where two headings read alike, the source gives them in different places.
Tested on: male Hartley guinea pigs actively sensitized with egg-white albumin
Assay: Antiallergic Test due to Antigen-Induced Immediate Type Airway Reaction and Delayed Type Airway Reaction
Type: in vivo
Details: Cavia porcellus, po, 10 mg/kg orally once one hour before induction (prednisolone 10 mg/kg orally twice, 16 hours and 2 hours before)
Procedure: Using an ultrasonic nebulizer (NE-U12, manufactured by OMRON Corporation), male Hartley guinea pigs (aged six weeks) were actively sensitized by consecutive 8-day inhalation of a 1 wt % physiological saline of egg-white albumin for 10 minutes a day. After one week passed since the final sensitization, an asthmatic disease state was induced by inhalation of a 2 wt % physiological saline of egg-white albumin for 5 minutes in the same manner. To inhibit the synthesis of endogenous steroid, metyrapone (10 mg/kg) was intravenously administered at 24 hours and one hour before the induction. To inhibit anaphylactic shock, pyrilamine (10 mg/kg) was intraperitoneally administered 30 minutes before inducing the asthmatic reaction.
After inducing the asthmatic reaction, the airway resistance (specific airway resistance Raw) was measured for 1 minute before inducing the asthmatic reaction, and 1 minute, 2 hours, 4 hours, 5 hours, 6 hours, 7 hours, 8 hours, and 23-24 hours after inducing the asthmatic reaction, using an airway resistance measuring apparatus (Pulmos-I, manufactured by M.I.P.S.). An average value of the airway resistance was determined, and an airway resistance increase ratio with respect to the value of the airway resistance before the induction was calculated by the following Equation 1.
Each of the test substances (10 mg/kg) listed in Table 1 was suspended in an aqueous 0.5% methyl cellulose solution, and the suspension was orally administered once one hour before inducing the asthmatic reaction. A positive control substance (prednisolone) was orally administered twice at a dosage of 10 mg/kg 16 hours and 2 hours before inducing the asthmatic reaction. The test was carried out on 8 animals per group.
According to this test procedure, a two-phase increase in airway resistance was observed immediately after inducing the asthmatic reaction and after 4-8 hours passed since inducing the asthmatic reaction. In the present invention, the former increase in airway resistance is referred to as the immediate type asthmatic reaction, while the latter increase in airway resistance is referred to as the delayed type asthmatic reaction. With respect to the evaluation of the drug, for the immediate type asthmatic reaction, the inhibition percentage with respect to the asthmatic reaction inhibiting medium administration group (referring to the group wherein a test drug is not administered after inducing the asthmatic reaction, hereinafter merely referred to as the “medium administration group”) was determined by Equation 2 using the airway resistance increase ratio after one minute gas passed since the induction as an index.
For the delayed type asthmatic reaction, the inhibition percentage with respect to the medium administration group was determined by the following Equation 3 using the area under the curve (AUC4-8) of the airway resistance increase ratio up to 4-8 hours after inducing the asthmatic reaction as an index. As an example, the relationship between the airway resistance increase ratio up to 4-8 hours after inducing the asthmatic reaction of the delayed type asthmatic reaction and time in the medium administration group, the prednisolone administration group, and the compound (216) administration group is shown in FIG. 1. As used herein, the area under the curve showing the relationship between the airway resistance increase ratio and time is (AUC4-8)
Airway resistance increase ratio (%)=(airway resistance after inducing the asthmatic airway resistance−airway resistance before inducing the asthmatic reaction)/(airway resistance before inducing the asthmatic reaction)×100
Inhibition (%)=(1−airway resistance increase ratio after one minute has passed since inducing the asthmatic reaction of the test substance administration group/airway resistance increase ratio after one minute has passed since inducing the asthmatic reaction of the medium administration group)×100 […]

[1] = 1 min, airway resistance increase ratio one minute after induction vs medium administration group, read-out: Inhibition (%) against immediate type allergy
[2] = AUC4-8 of airway resistance increase ratio 4-8 hours after induction vs medium administration group, read-out: Inhibition (%) against delayed type allergy

Structure (SMILES)	inhibition in vivo at 10 mg/kg [1] [%]	inhibition in vivo at 10 mg/kg [2] [%]
CCOc1c(O)c2cc(OCCCCO)ccc2oc1=O [Compound (137), 3-ethoxy-4-hydroxy-6-(4-hydroxybutoxy)-2H-1-benzopyran-2-one]	8.3	58.9
CCCCCCOc1c(O)c2c(OCCC(O)CO)cccc2oc1=O (stereo not shown) [Compound (53), 3-hexyloxy-4-hydroxy-5-(3,4-dihydroxybutoxy)-2H-1-benzopyran-2-one]	19.3	59.8

Source: patent publication US6670391B2, “Benzopyran derivative and antiallergic agent” (Dainippon Ink and Chemicals, Inc., priority 2001, dated 2003)
